Patent US20080139455A1, “COMPOUNDS AND METHODS OF TREATING METABOLIC SYNDROME AND INFLAMMATION” (Forbes Medi-Tech (Research), Inc., priority 2006, published 2008)

Legend:
[1] = target: T1, SPT (Homo sapiens, UniProt O15269+O15270); assay: Serine palmitoyltransferase activity, Assay C ([3H]serine incorporation into lipids, cell homogenates); type: biochemical; details: 37° C. for 20 min, at the doses indicated
T1 sequence (O15269 1-473): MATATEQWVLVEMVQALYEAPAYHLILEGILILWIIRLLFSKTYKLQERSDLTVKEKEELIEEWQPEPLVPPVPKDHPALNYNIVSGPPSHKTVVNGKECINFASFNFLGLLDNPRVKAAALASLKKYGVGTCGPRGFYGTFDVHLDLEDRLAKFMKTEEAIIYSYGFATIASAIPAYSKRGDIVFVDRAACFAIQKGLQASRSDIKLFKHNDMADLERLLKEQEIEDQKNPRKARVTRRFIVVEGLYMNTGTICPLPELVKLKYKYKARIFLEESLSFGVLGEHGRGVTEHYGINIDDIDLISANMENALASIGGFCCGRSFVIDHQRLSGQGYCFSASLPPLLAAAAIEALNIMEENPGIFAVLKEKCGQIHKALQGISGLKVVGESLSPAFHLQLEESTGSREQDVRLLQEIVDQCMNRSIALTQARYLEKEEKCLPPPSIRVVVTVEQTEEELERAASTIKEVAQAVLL
T1 sequence (O15270 1-562): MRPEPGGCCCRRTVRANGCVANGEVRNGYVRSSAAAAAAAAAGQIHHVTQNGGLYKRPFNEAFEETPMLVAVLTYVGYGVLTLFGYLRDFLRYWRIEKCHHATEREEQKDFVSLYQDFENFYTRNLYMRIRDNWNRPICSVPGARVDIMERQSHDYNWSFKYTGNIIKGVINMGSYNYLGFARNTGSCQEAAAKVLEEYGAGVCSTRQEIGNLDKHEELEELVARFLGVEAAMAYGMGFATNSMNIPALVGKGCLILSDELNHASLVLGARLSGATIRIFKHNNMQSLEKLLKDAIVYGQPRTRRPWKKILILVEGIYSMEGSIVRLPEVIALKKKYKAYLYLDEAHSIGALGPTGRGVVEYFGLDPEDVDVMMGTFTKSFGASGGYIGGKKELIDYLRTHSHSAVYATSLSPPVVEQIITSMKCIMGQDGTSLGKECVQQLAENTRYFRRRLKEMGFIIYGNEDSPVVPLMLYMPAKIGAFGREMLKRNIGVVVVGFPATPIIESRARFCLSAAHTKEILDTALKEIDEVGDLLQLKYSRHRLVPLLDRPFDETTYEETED
Procedure: An alternative assay for evaluating inhibition of SPT, the enzyme present in commonly cultured cells, is performed with CHO cells or a human cell line. Cells are washed three times with ice-cold phosphate-buffered saline (PBS). A total of 0.5 mL of lysis buffer [50 mM Hepes (pH 8.0) containing 5 mM ethylenediaminetetraacetic acid (EDTA) and 5 mM dithiothreitol (DTT)] is added to each dish. The cells are scraped using a rubber policeman, and are then transferred to a test tube on ice. The cell suspension is sonicated three times for 5 s at 1-2 min intervals on ice. Protein concentrations in cell homogenates are measured using a Bradford protein assay kit (Bio-Rad). […] The radioactivity is measured with a LS6000TA liquid scintillation counter (Beckman). Nonspecific conversion of [^3H] serine to chloroform-soluble species is determined by performing the assay in the absence of palmitoyl CoA. […]
An alternative assay using a non-chlorinated solvent modification of the Blye and Dyer lipid extraction method reported in Smedes (Smedes, F. (1999) Analyst 124, 1711-18) is employed to evaluate exemplary compounds. […] An accurately measured portion of the organic layer (4.0 ml) is added to a scintillation vial with 1 ml of water. […] The amount of [^3H] serine radioactivity incorporated into lipids is quantified in a scintillation counter. […]

[2] = test system: Rat pancreatic islets; assay: Protection of islets by an SPT inhibitor (propidium iodide staining, flow cytometry); type: cell-based; details: 3 days
Procedure: Islet protection by an exemplary compound is evaluated in an assay according to Eitel, K, et al. Biochem. Biophys. Res. Commun. 299: 853-6 (2002), and results obtained in this assay are reported below in Table 4. Rat pancreatic islets are cultured with control medium (RPMI 1640 supplemented with 10% fetal bovine serum, antibiotics and made 8% in glucose) or in medium supplemented with I millimolar sodium palmitate (Fatty Acid Medium) during a period of 3 days. The culture medium is changed after 2 days to an identical composition culture medium with fresh inhibitor in the appropriate wells. Cells are stained with propidium iodide (PI), washed and propidium staining of cells (as a measure of cellular DNA content) is assessed by flow cytometry. The percentage of cells having less than the normal amount of PI staining is considered to be apoptotic cells (Eitel, K, et al. (2002)).

[3] = target: T1, SPT; details: literature; cited from earlier work
[4] = test system: mice; details: literature, cited from earlier work; for protective effect / prevention of progression of emphysema: VEGF receptor blockade model
[5] = test system: ApoE knockout mice; details: literature; cited from earlier work
[6] = test system: diabetic Zucker fatty rat model; details: literature; cited from earlier work

Row | SMILES | inhibition of SPT ([3H] serine radioactivity incorporated into lipids) [1] | activity against / inhibition of SPT [3] | protective effect / prevention of progression of emphysema [4] | other results
1 | CCCCCCCOc1cccc(CCC(O)C(O)C(N)C(=O)O)c1 (stereo not shown) [Compound 12] | moderate activity |  |  | protection of islet cells from fatty acid treatment (apoptotic cells by PI staining) ([2]; medium with sodium palmitate (Fatty Acid Medium)): fully protect cells from the fatty acid treatment; benefit in comparison to treatment with the control medium (apoptotic cells by PI staining) ([2]; versus control medium): imparts a benefit in comparison to treatment with the control medium
2 | CCCCCCCCc1ccc(CCC(N)(CO)CO)cc1 [FTY720] |  | do not inhibit SPT |  | 
3 | CCCCCCC(=O)CCCCCC/C=C/C[C@@H](O)[C@H](O)[C@@](N)(CO)C(=O)O [ISP-1] | potent but non-selective inhibition |  | very strong protective effect | atherosclerotic plaque [5]: dramatic reduction in atherosclerotic plaque; IC50 for inhibition of SPT [3]: sub-nanomolar
4 | CCCCCCCCc1ccc(CCC(N)(CO)C(=O)O)cc1 (stereo not shown) [compound 2] |  | did not exhibit activity against SPT |  | 
5 | N[C@@H]1CON=C1O [cycloserine] |  | weak inhibition |  | beta cell protective effect [6]: ≈ 50%
6 | CCCC[C@@H](C)[C@@H](OC(=O)C[C@@H](CC(=O)O)C(=O)O)[C@H](C[C@@H](C)C[C@H](O)CCCC[C@@H](O)C[C@H](O)[C@H](C)N)OC(=O)C[C@@H](CC(=O)O)C(=O)O [fumonisin B1] |  |  | less effective | toxicity ([4]; emphysema model, higher doses): some toxicity at higher doses
